From ChEMBL document CHEMBL3526031, “Mechanistic studies on the absorption and disposition of scutellarin in humans: selective OATP2B1-mediated hepatic uptake is a likely key determinant for its unique pharmacokinetic characteristics” (Drug Metab Dispos, 2012)
pKi: −log10 of the molar value.

Legend:
[1] = molecular target: T1, OATP2B1 (Homo sapiens, UniProt O94956); assay: (§1) Drug uptake assessed as OATP2B1 (unknown origin)-mediated drug transport expressed in HEK293 cells after 7 mins by LC-MS/MS analysis; assay type: ADME, cell-based; conditions: human, HEK293 cells expressing OATP2B1
T1 sequence (O94956 whole entry): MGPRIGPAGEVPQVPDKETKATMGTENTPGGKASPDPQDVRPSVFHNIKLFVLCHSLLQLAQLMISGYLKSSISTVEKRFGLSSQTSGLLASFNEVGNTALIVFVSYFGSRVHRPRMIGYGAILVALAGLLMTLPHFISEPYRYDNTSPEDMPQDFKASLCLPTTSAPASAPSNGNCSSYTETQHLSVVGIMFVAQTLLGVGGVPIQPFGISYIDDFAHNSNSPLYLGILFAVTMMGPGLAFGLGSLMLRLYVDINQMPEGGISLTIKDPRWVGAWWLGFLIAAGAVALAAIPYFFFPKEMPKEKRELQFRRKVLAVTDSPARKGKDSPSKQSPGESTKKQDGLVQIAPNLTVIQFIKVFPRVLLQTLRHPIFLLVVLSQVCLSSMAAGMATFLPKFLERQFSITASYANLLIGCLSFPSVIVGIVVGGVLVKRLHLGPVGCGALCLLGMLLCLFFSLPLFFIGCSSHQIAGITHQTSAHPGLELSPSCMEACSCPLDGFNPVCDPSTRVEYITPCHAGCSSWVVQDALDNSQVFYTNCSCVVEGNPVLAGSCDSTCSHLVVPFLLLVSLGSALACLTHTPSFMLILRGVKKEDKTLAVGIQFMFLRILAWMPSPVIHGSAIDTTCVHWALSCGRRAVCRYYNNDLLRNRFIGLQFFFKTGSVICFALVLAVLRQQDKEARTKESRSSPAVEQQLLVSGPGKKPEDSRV

[2] = molecular target: T2, Solute carrier organic anion transporter family member 2B1 (Homo sapiens, UniProt O94956); assay: as §1; assay type: ADME, cell-based
T2 sequence (O94956 whole entry): T1 sequence (O94956 whole entry)

[3] = molecular target: T2, Solute carrier organic anion transporter family member 2B1; assay: Drug uptake assessed as OATP2B1 (unknown origin)-mediated drug transport expressed in HEK293 cells by LC-MS/MS analysis; assay type: ADME, cell-based
[4] = molecular target: T3, UDP-glucuronosyltransferase 1A8 (Homo sapiens, UniProt Q9HAW9); assay: Drug metabolism assessed as human recombinant UGT1A8-mediated formation of scutellarein-6,7-diglucuronide after 25 mins by HPLC/UV analysis; assay type: ADME; conditions: recombinant enzyme
T3 sequence (Q9HAW9 whole entry): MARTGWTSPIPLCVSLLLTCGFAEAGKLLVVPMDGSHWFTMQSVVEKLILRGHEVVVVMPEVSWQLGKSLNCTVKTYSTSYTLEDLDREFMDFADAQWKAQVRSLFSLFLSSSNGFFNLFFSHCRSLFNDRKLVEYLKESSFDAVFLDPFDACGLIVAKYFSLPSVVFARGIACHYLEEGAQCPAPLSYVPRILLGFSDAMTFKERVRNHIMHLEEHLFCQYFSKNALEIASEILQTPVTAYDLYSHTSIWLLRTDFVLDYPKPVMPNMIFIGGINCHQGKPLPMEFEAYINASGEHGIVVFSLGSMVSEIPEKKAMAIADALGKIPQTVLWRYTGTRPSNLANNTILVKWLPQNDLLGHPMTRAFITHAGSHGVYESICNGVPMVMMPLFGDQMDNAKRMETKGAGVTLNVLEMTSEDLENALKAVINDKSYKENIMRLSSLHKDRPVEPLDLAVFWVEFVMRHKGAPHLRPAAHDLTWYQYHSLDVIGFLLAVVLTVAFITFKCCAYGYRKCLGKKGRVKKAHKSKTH

Compound | Km at 7 min [1] [µM] | pKi [2] | Vmax ([2]; human, hek293, 7 min) [pmol/min/mg] | pKi [3] | Vmax [4] [nmol/min/mg]
O=C(O)[C@H]1O[C@@H](Oc2cc3oc(-c4ccc(O)cc4)cc(=O)c3c(O)c2O)[C@H](O)[C@@H](O)[C@@H]1O [SCUTELLARIN] | 43 | 4.59 | 113 | – | –
O=C(O)[C@H]1O[C@@H](Oc2c(O)cc3oc(-c4ccc(O)cc4)cc(=O)c3c2O)[C@H](O)[C@@H](O)[C@@H]1O | – | – | – | 4.59 | 0.465
